Results reported in patent US10294202B2, “Pyrrolidinones as herbicides” (FMC Corporation, priority 2013, dated 2019).

Columns and labels:
bermudagrass = test: Test C pre-/postemergence herbicide test; format: in vivo, Cynodon dactylon; details: Preemergence
Procedure, shortened: (§1)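 Greenhouse plants scored visually against untreated controls 13–15 days after treatment, 0 = no effect, 100 = complete control. Test chemicals in a non-phytotoxic solvent with surfactant were applied either to soil (loam/sand) at planting or to foliage of 1- to 4-leaf plants, 2–18 cm tall.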

morningglory = test: Test E preemergence herbicide test; format: in vivo, Ipomoea coccinea; design: key: 0 = no effect, 100 = complete control
From the text: (§2) Seeds of plant species selected from corn (Zea mays), soybean (Glycine max), velvetleaf (Abutilon theophrasti), lambsquarters (Chenopodium album), wild poinsettia (Euphorbia heterophylla), pigweed, palmer (palmer pigweed, Amaranthus palmeri), waterhemp (common waterhemp, Amaranthus rudis), surinam grass (Brachiaria decumbens), crabgrass, large (large crabgrass, Digitaria sanguinalis), crabgrass, Brazil (Brazilian crabgrass, Digitaria horizontalis), panicum, fall (fall panicum, Panicum dichotomiflorum), foxtail, giant (giant foxtail, Setaria faberii), foxtail, green (green foxtail, Setaria viridis), goosegrass (Eleusine indica), johnsongrass (Sorghum halepense), ragweed (common ragweed, Ambrosia elatior), barnyardgrass (Echinochloa crus-galli), sandbur (southern sandbur, Cenchrus echinatus), arrowleaf […] rhombifolia), ryegrass, Italian (Italian ryegrass, Lolium multiflorum), dayflower, VA (Virginia dayflower, Commelina virginica), field bindweed (Convolvulus arvensis), morningglory (Ipomoea coccinea), nightshade (eastern black nightshade, Solanum ptycanthum), kochia (Kochia scoparia), nutsedge, yellow (yellow nutsedge, Cyperus esculentus), cocklebur (common cocklebur, Xanthium strumarium), smartweed (ladysthumb smartweed, Polygonum Persicaria) and beggarticks (hairy beggarticks, Bidens pilosa), were planted into a silt loam soil and treated preemergence with test chemicals formulated in a non-phytotoxic solvent mixture which included a surfactant. Treated plants and controls were maintained in a greenhouse for 21 days, after which time all species were compared to controls and visually evaluated. Plant response ratings, summarized in Table E, are based on a scale of 0 to 100 where 0 is no effect and 100 is complete control. A dash (-) response means no test result.

arrowleaf sida = test: Test E preemergence herbicide test; format: in vivo, Sida rhombifolia; design: key: 0 = no effect, 100 = complete control
From the text: as §2

cupgrass, woolly = test: Test C pre-/postemergence herbicide test; format: in vivo, Eriochloa villosa; details: Preemergence
Procedure, shortened: as §1

kochia = test: Test D pre-/postemergence herbicide test; format: in vivo, Kochia scoparia; details: for Plant response rating: Kochia, scale 0 to 100; for Plant response rating, Kochia: scale 0 to 100 (0 no effect, 100 complete control)
Procedure, shortened: (§3)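 Plants were sown in silt loam for preemergence spraying or in a peat moss/vermiculite mix for postemergence spraying at 2 to 18 cm height. Formulations used a non-phytotoxic solvent mixture with a surfactant. After 7 to 21 days, responses were scored visually from 0 (no effect) to 100 (complete control).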

canarygrass = test: Test D pre-/postemergence herbicide test; format: in vivo, Phalaris minor; details: for Plant response rating: Canarygrass, scale 0 to 100; for Plant response rating, Canarygrass: scale 0 to 100 (0 no effect, 100 complete control)
Procedure, shortened: as §3

[1] = 125 g ai/ha, scale 0 to 100 (0 no effect, 100 complete control)
[2] = 31 g ai/ha, scale 0 to 100 (0 no effect, 100 complete control)
[3] = 250 g ai/ha, scale 0 to 100 (0 no effect, 100 complete control)

SMILES | Plant response rating, Morningglory (morningglory; 16 g ai/ha) | Plant response rating, Morningglory (morningglory; 31 g ai/ha) | Plant response rating, Morningglory (morningglory; 125 g ai/ha) | Plant response rating, Morningglory (morningglory; 250 g ai/ha) | Plant response rating, Arrowleaf Sida (arrowleaf sida; 16 g ai/ha) | Plant response rating, Arrowleaf Sida (arrowleaf sida; 31 g ai/ha) | Plant response rating, Arrowleaf Sida (arrowleaf sida; 62 g ai/ha) | Plant response rating, Arrowleaf Sida (arrowleaf sida; 125 g ai/ha) | Plant response rating, Arrowleaf Sida (arrowleaf sida; 250 g ai/ha) | Plant response rating, Kochia (kochia; Preemergence, 62 g ai/ha) | Plant response rating, Kochia (kochia; Preemergence, 31 g ai/ha) | Plant response rating (kochia; Preemergence, 250 g ai/ha) | Plant response rating, Morningglory (morningglory; 62 g ai/ha) | Plant response rating, Canarygrass (canarygrass; Preemergence, 62 g ai/ha) | Plant response rating, Canarygrass (canarygrass; Preemergence, 31 g ai/ha) | Plant response rating (canarygrass; Preemergence, 250 g ai/ha) | Plant response rating, Kochia (kochia; Preemergence, 125 g ai/ha) | Plant response rating, Canarygrass (canarygrass; Preemergence, 125 g ai/ha) | also measured
O=C1NCC(c2ccc(Cl)c(Cl)c2)C1C(=O)Nc1ccccc1F (racemic) [Compound 14] | 0 | 0 | 0 | 0 | 0 | 0 | 0 | 0 | 0 | – | – | – | – | – | – | – | – | – | Plant response rating, Bermudagrass (bermudagrass; 62 g ai/ha, scale 0 to 100): 90; Plant response rating, Bermudagrass (bermudagrass; [1]): 95; Bermudagrass plant response rating (bermudagrass; [2]): 75; Plant response rating, Bermudagrass (bermudagrass; [3]): 95; Plant response rating, Cupgrass, Woolly (cupgrass, woolly; 62 g ai/ha, scale 0 to 100): 0; Plant response rating, Cupgrass, Woolly (cupgrass, woolly; [1]): 0; Cupgrass, Woolly plant response rating (cupgrass, woolly; [2]): 0; Plant response rating, Cupgrass, Woolly (cupgrass, woolly; [3]): 80
O=C1NCC(c2ccc(C(F)(F)F)cc2)C1C(=O)Nc1cccc(F)c1F (stereo not drawn) [Compound 80, N-(2,3-difluorophenyl)-2-oxo-4-[4-(trifluoromethyl)phenyl]-3-pyrrolidinecarboxamide] | 0 | 0 | 20 | 40 | 0 | 0 | 0 | 0 | 10 | 35 | 15 | 75 | 0 | 0 | 0 | 20 | – | – | Plant response rating (kochia; Postemergence, 31 g ai/ha): 65; Plant response rating (kochia; Postemergence, 62 g ai/ha): 75; Plant response rating (kochia; Postemergence, 125 g ai/ha): 70; Plant response rating (kochia; Postemergence, 250 g ai/ha): 75; Plant response rating (kochia; Preemergence, 125 g ai/ha): 70; Plant response rating (canarygrass; Postemergence, 31 g ai/ha): 0; Plant response rating (canarygrass; Postemergence, 62 g ai/ha): 0; Plant response rating (canarygrass; Postemergence, 125 g ai/ha): 0; Plant response rating (canarygrass; Postemergence, 250 g ai/ha): 0; Plant response rating (canarygrass; Preemergence, 125 g ai/ha): 10
O=C1NC[C@H](c2cccc(C(F)(F)F)c2)[C@H]1C(=O)Nc1ccccc1F [Compound 204, (3R,4S)—N-(2-fluorophenyl)-2-oxo-4-[3-(trifluoromethyl)phenyl]-3-pyrrolidinecarboxamide] | – | 0 | 20 | 30 | – | 0 | 0 | 0 | 0 | 45 | 20 | 70 | 0 | 10 | 0 | 75 | 15 | 10 | –
O=C1NC[C@H](c2cccc(C(F)(F)F)c2)[C@H]1C(=O)Nc1cccc(F)c1F [Compound 206] | – | 0 | 0 | 0 | – | 0 | 0 | 10 | 50 | 60 | 45 | 80 | 0 | 75 | 55 | 85 | 70 | 85 | –
